According to EP2292587A1, “PHARMACEUTICAL COMPOSITION FOR INHIBITING THE TRANSCRIPTION FACTOR INDUCIBLE BY HYPOXIA, MODULATORS OF PATHOLOGICAL PROCESSES OF ANGIOGENESIS, ONCOGENESIS, INFLAMMATION, APOPTOSIS, AND CELLULAR THERAPY” (Fundacion De La Comunidad Valenciana Centro De …, priority 2008, dated 2009):

test system: HIF; experiment: luciferase cell assay based on the HIF response elements (HRE), HeLa 9XHRE-LUC; design: species or system human; details: Homo sapiens; cell assay based on the HIF response elements (Example 1), HeLa 9XHRE-LUC; read-out: IC50 HRE
Description: In order to identify direct inhibitors of the activity of HIF, a stable recombinant line was first constructed from the cervical tumor line, known in scientific literature as HeLa, which contained the deoxyribonucleic acid (DNA) sequences of the region located between positions -985 and -951 of the human vascular endothelial growth factor (hVEGF), repeated nine times (9X) and fused to the luciferase reporter gene (LUC). This plasmid, provided by Dr. Manuel Ortiz de Landazuri from the Hospital de La Princesa of Madrid, called 9XHRE-LUC, was prepared using a commercial kit (Endofree Maxi-Prep; Qiagen, Inc., Valencia, CA). The transfections were performed with FuGene6 (Roche, cat.1814443) according to the manufacturer's instructions, the µg DNA: µg FuGene ratio was 1:3. The transfected cell lines were generated by cotransfection with the vector pCMV-Hygrom which expressed a hygromycin resistance gene in mammalian cells, allowing the selection of the transfected clones. After 48 hours, the growth medium was substituted with fresh medium containing 100 µg/ml hygromycin (Sigma), the clones resistant to the antibiotic were collected and analyzed by means of RT-PCR to select the clone with the desired construct. Routinely, the HeLa 9XHRE-LUC cell line was maintained in exponential growth by means of performing subcultures in DMEM (Invitrogen-Life Technologies, Inc., Carlsbad, CA), supplemented with 10% inactivated fetal bovine serum (Whittacker Bioproducts), penicillin (50 IU/ml), streptomycin (50 µg/ml) (Invitrogen-Life Technologies, Inc., Carlsbad, CA). The cells were cultured at 37°C with a humidified atmosphere containing 5% CO2 and 300 nM Desferoxamine (DFX; Sigma St. Louis, MO).
The compounds of the Collection of the CIPF, coming from a selection of commercial collections of Sigma-Aldrich, were solubilized in DMSO at a final concentration of 5 mM and preserved at -80°C. The concentration of these compounds in the luciferase assay was 1 mcM finally in the well of the multi-well plate in which the reaction was carried out. The luciferase assays were performed in white 96-well plates (Valtecknova ref. 3917), using the kit Bright-Glo™ Luciferase Assay System (Promega, Inc., Madison, WI) following the instructions supplied by the manufacturer.
According to the methodology of the cell assay based on the HIF response elements (Example 1), the intermediate compounds of the synthesis and several synthesized analogs were tested to obtain the SAR of FM19G11.

Row | IC50 | Structure (SMILES)
1 | > 1000 nM | COC(=O)c1cccc(NC(=O)c2ccc(C(F)(F)F)cc2[N+](=O)[O-])c1 [Compound 5, methyl 3-(2-nitro-4-(trifluoromethyl)benzamido)benzoate]
2 | > 1000 nM | O=C(O)c1cccc(NC(=O)c2ccc(C(F)(F)F)cc2[N+](=O)[O-])c1 [Compound 6, 3-(2-nitro-4-(trifluoromethyl)benzamido)benzoic acid]
3 | 84 nM | Cc1ccc(C(=O)COC(=O)c2cccc(NC(=O)c3ccc(C(F)(F)F)cc3[N+](=O)[O-])c2)cc1 [Compound 7, 2-oxo-2-(p-tolyl)ethyl 3-(2-nitro-4-(trifluoromethyl)benzamido)benzoate]
4 | > 1000 nM | COC(=O)c1cccc(NC(=O)c2ccc([N+](=O)[O-])cc2C(F)(F)F)c1 [Compound 8, methyl 3-(4-nitro-2-(trifluoromethyl)benzamido)benzoate]
5 | > 1000 nM | O=C(O)c1cccc(NC(=O)c2ccc([N+](=O)[O-])cc2C(F)(F)F)c1 [Compound 9, 3-(4-nitro-2-(trifluoromethyl)benzamido)benzoic acid]
6 | 140 nM | Cc1ccc(C(=O)COC(=O)c2cccc(NC(=O)c3ccc([N+](=O)[O-])cc3C(F)(F)F)c2)cc1 [Compound 10, 2-oxo-2-(p-tolyl)ethyl 3-(4-nitro-2-(trifluoromethyl)benzamido)benzoate]
7 | > 1000 nM | O=C(O)c1cccc(NC(=O)c2ccc(C(F)(F)F)cc2C(F)(F)F)c1 [Compound 12, 3-(2,4-bis-(trifluoromethyl)benzamido)benzoic acid]
8 | 300 nM | Cc1ccc(C(=O)COC(=O)c2cccc(NC(=O)c3ccc(C(F)(F)F)cc3C(F)(F)F)c2)cc1 [Compound 13, 2-oxo-2-(p-tolyl)ethyl 3-(2,4-bis(trifluoromethyl)benzamido)benzoate]
9 | > 1000 nM | Cc1ccc(C(=O)COC(=O)c2cccc(NC(=O)c3ccccc3)c2)cc1 [Compound 16, 2-oxo-2-(p-tolyl)ethyl 3-(benzamido)benzoate]
10 | 2500 nM | Cc1ccc(C(=O)COC(=O)c2cccc(NC(=O)c3ccc([N+](=O)[O-])cc3)c2)cc1 [Compound 22, 2-oxo-2-(p-tolyl)ethyl 3-(4-nitrobenzamido)benzoate]
11 | > 1000 nM | COC(=O)c1cccc(NC(=O)c2ccccc2[N+](=O)[O-])c1 [Compound 23, methyl 3-(2-nitrobenzamido)benzoate]
12 | 1400 nM | O=C(O)c1cccc(NC(=O)c2ccccc2[N+](=O)[O-])c1 [Compound 24, 3-(2-nitrobenzamido)benzoic acid]
13 | 2800 nM | Cc1ccc(C(=O)COC(=O)c2cccc(NC(=O)c3ccccc3[N+](=O)[O-])c2)cc1 [Compound 25, 2-oxo-2-(p-tolyl)ethyl 3-(2-nitrobenzamido)benzoate]

Row | Structure (SMILES) | IC50
14 | COC(=O)c1cccc(NC(=O)c2ccc([N+](=O)[O-])cc2[N+](=O)[O-])c1 [Compound 2, methyl 3-((2,4-dinitro)benzamido)benzoate] | > 1000 nM
15 | O=C(O)c1cccc(NC(=O)c2ccc([N+](=O)[O-])cc2[N+](=O)[O-])c1 [Compound 3, 3-((2,4-dinitro)benzamido)benzoic acid] | > 1000 nM
16 | O=C(COC(=O)c1cccc(NC(=O)c2ccc([N+](=O)[O-])cc2[N+](=O)[O-])c1)c1ccccc1 [Compound 19, 2-phenyl-2-oxoethyl 3-(2,4-(dinitro)benzamido)benzoate] | > 1000 nM
17 | O=C(O)c1ccc(C(=O)COC(=O)c2cccc(NC(=O)c3ccc([N+](=O)[O-])cc3[N+](=O)[O-])c2)cc1 [Compound 29, 4-(2-(3-(2,4-dinitrobenzamido)benzoyloxy)-acetyl)benzoic acid] | 1400 nM

same assay, conditions: cell assay based on the HIF response elements (Example 1), HeLa 9XHRE-LUC; read-out: IC50 HRE

Row | IC50 | Structure (SMILES)
18 | 1000 nM | O=C(COC(=O)c1cccc(NC(=O)c2ccc([N+](=O)[O-])cc2[N+](=O)[O-])c1)c1ccc(C(F)(F)F)cc1 [Compound 17, 2-oxo-2-(4-trifluoromethyl) ethyl 3-(2,4-(dinitro)benzamido)benzoate]
19 | 360 nM | O=C(COC(=O)c1cccc(NC(=O)c2ccc([N+](=O)[O-])cc2[N+](=O)[O-])c1)c1ccc(O)cc1 [Compound 26, 2-(4-hydroxyphenyl)-2-oxoethyl 3-(2,4-(dinitro)benzamido)benzoate]
